Reference: patent US20190008440A1, “Method and device to investigate or treat painful neuropathy” (priority 2017, published 2019)

Assays:
C fiber mediated pain = details: in vivo; cited from earlier work
A delta nociceptors = assay: Laser pin prick pain threshold (A delta fibers) of healthy volunteer after topical capsaicin; format: in vivo, human; details: beam 1 mm, 20 minutes after topical capsaicin on skin
Excerpt: The following is a description a typical test procedure utilizing the present invention with the application of protocol Example 1 for healthy volunteers and pain patients:
Step 1: Preparing volunteer for test. The volunteers were asked to respond to stimuli after each stimulus was applied, and describing the level and type of evoked sensation, location of sensation, how long the sensation lasts, whether the sensation was single (monomodal) or if more than one sensation were evoked by stimulation.
Step 2: The level of power of laser was adjusted to skin type of volunteer and irradiated spot was selected as close as possible to A-delta receptors.
Collimated beam with diameter 2 mm, within range of power 5.0-10.0 W and pulse duration 100 ms is applied to an investigated area of skin to determine the individual sensitivity and to map the location of A delta nociceptors. The power is increased with step 0.5 W until the first sensation is evoked. After that, the pulse power is fixed and the position of the irradiated spot is scanned (tuned) within an XY frame 5 mm×5 mm to find the location of the nociceptor and pulse power is applied for each new location with spatial steps of around 0.5 mm for fingertips.
The inter-stimulus time was at least 20 sec. The first appeared sensation was rated by the volunteer as barely pricking pain without any other sensations of warmth or hot pain.
After the location of receptors were determined, the summation curve—Power of Pain Threshold vs. Pulse Duration were measured by the following procedure: • 1) Collimated beam was adjusted to 1 mm, • 2) Duration of pulse set up to 50 ms and pulse power was increased from 2 W until volunteer reported about first appeared sensation. • 3) Afterwards, power was increased until volunteer reported that sensation became clearly painful, but decreasing of power of stimulus on 5-10% leads to the disappearance of pain. • 4) Afterward, the power threshold was measured for 50 ms pulse duration was increased by step 50 ms and procedure measurement of threshold was repeated. The increment of power was 0.1 W.
The healthy volunteer was tested with pulse durations from 50 ms to 300 ms and beam size of 1 mm. The volunteer reported what around 200-300 ms, they felt on the same level of power firstly warmth and after that pricking pain but for pulses within range 50-150 ms, only single (monomodal) pricking pain was discerned. The sensations were sharp and disappeared in a few seconds after stimulation. The next stimulus was applied not earlier than 20 sec or after the disappearance of painful sensation of previous stimulus.
The thresholds of pin prick pain of healthy volunteers were measured in 20 minutes after topical analgesic (capsaicin) was applied on skin. The Steps 2, 3 and 4 were repeated.

C fibers = assay: Laser threshold pulse duration for hot pain (stimulation of C fibers), hairy skin of left hand; format: in vivo, human
Protocol: Subjects: A chronic pain patient with hypersensitivity and a healthy volunteer were tested. Both subjects gave informed consent and the experiments were approved by the local institutional review board. The hairy skin of left hand was used for both volunteers. In preparing the subjects testing, they were asked to respond orally immediately after they perceived any threshold sensation and/or to interrupt lasing pulse by pressing STOP button. They then described the level and type of evoked sensation, location of sensation, how long the sensation lasted, whether the sensation was single (monomodal) sensation or if there were more than one evoked sensations by a single stimulation. Afterwards, the threshold pulse was applied 3 times to different areas with interval of {tilde over ( )}3 min or after the previous sensation (pain) had disappeared. The appearance redness was an indication of skin irritation.
Step 1: To test duration of pulse that evoked threshold warmth sensation only, the output power was set to 1.5 W, beam size adjusted to 5 mm. The pulse was applied to the skin. When the volunteer reported warmth (pain) sensation the lasing was stopped. […]
The laser radiation was stopped by volunteer. […] When this button was pushed the command “stop lasing” was activated, duration of applied pulse was measured and it was indicated on the screen of PC connected to the device by RS232 interface. […]

A delta and C fibers = assay: Skin biopsies processed with PGP 9.5 biomarker, integral fiber density of A delta and C fibers in epidermis and dermis; format: in vivo, human; details: biopsies 7 days after treatment with 8% capsaicin patch
Excerpt: In 7 days after treatment additional biopsies from laser and capsaicin treated areas together with control were taken and “blindly” processed with PGP 9.5 biomarker to determine the integral fiber density of the A delta and C fibers in epidermis and dermis.

[1] = cited from earlier work

| SMILES | inhibition of C fiber mediated pain vs A delta fiber mediated pain (C fiber mediated pain) | Power of Pain Thresholds of Healthy Volunteer (Capsaicin) (A delta nociceptors; pulse duration 50 ms, untreated healthy volunteer 9.5 W) [W] | Power of Pain Thresholds of Healthy Volunteer (Capsaicin) (A delta nociceptors; pulse duration 100 ms, untreated healthy volunteer 4.5 W) [W] | Power of Pain Thresholds of Healthy Volunteer (Capsaicin) (A delta nociceptors; pulse duration 150 ms, untreated healthy volunteer 3.2 W) [W] | Power of Pain Thresholds of Healthy Volunteer (Capsaicin) (A delta nociceptors; pulse duration 200 ms, untreated healthy volunteer 2.8 W) [W] | Power of Pain Thresholds of Healthy Volunteer (Capsaicin) (A delta nociceptors; pulse duration 300 ms, untreated healthy volunteer 2.5 W) [W] | threshold pulse duration, hot pain (C fibers; power 1.5 W, beam 5 mm, healthy volunteer affected topical capsaicin, stop button, untreated healthy volunteer 1300 ms) [ms] | effect on thresholds of warmth sensation and hot/burning pain (C fibers; topical capsaicin) | fiber density below control (A delta and C fibers) [%] | residual time ([1]; capsaicin solution used to stimulate neurogenic flare) | duration of capsaicin induced flare ([1]; in vivo) | residual time of capsaicin in the skin ([1]; patch application) [h] |
| --- | --- | --- | --- | --- | --- | --- | --- | --- | --- | --- | --- | --- |
| CN1CC[C@]23c4c5ccc(O)c4O[C@H]2[C@@H](O)C=C[C@H]3[C@H]1C5 [morphine] | much more effective in inhibiting C fiber mediated pain than A delta fiber mediated pain | – | – | – | – | – | – | – | – | – | – | – |
| COc1cc(CNC(=O)CCCC/C=C/C(C)C)ccc1O [capsaicin] | – | 14.8 | 7.0 | 5 | 4.3 | 3.9 | 800 | decreases the thresholds of warmth sensation and hot/burning pain | 10 to 20 | over 48 hours | over several hours | 48 |
